Some results are limits rather than exact numbers.

As a reminder, the Ki is a dissociation constant, usually derived from enzyme kinetics or from competition with a known ligand. As usually defined, the IC50 is the concentration at which inhibition is half-maximal.

Test system in the first data set: not listed separately
Description: Permeability of compound by PAMPA. The format is ADME. The conditions noted are these: read-out: permeability. In general terms: In PAMPA a lipid-coated filter parts donor from acceptor wells.
As for `Cc1c(N2CC(=O)NS2(=O)=O)csc1-c1cccc(NC2CCN(S(=O)(=O)Cc3ccccc3)CC2)c1`, the Papp was 0.19 ×10⁻⁶ cm/s.

`O=C1CN(c2c(Cl)sc(-c3ccccc3)c2Cl)S(=O)(=O)N1`: the Papp turned out to be 3.54 ×10⁻⁶ cm/s.

Regarding `Cc1c(-c2cccc(OC3CCN(S(=O)(=O)Cc4ccccc4)CC3)c2)sc(-c2nn[nH]n2)c1OCC(=O)O`, the Papp was 0.22 ×10⁻⁶ cm/s.

A further data set has as its target T1, Tyrosine-protein phosphatase non-receptor type 1 (Homo sapiens, UniProt P18031).
T1 sequence (P18031 whole entry): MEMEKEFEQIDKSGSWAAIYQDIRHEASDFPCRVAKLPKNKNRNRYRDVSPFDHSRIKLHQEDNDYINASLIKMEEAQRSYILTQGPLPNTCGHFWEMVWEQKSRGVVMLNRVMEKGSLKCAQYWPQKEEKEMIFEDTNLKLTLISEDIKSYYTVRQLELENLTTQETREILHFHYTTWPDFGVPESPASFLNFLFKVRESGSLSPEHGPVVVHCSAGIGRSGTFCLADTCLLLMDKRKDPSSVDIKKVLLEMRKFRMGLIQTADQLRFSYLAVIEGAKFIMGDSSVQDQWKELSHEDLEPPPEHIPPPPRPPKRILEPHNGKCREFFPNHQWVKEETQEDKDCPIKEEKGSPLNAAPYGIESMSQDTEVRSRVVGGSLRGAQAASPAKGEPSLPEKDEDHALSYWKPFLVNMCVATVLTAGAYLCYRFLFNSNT
Description: Inhibition of PTP1B assessed as pNPP hydrolysis.
Details: not given
Consider `Cc1c(N2CC(=O)NS2(=O)=O)csc1-c1cccc(NC2CCN(S(=O)(=O)Cc3ccccc3)CC2)c1`, for which the Ki came to 4.3 µM.

In the case of `NNC(=O)c1sc(Br)c(Br)c1OCC(=O)O`, the IC50 is greater than 2500 µM.

Take `NC(=O)c1sc(Br)c(Br)c1OCC(=O)O`: the IC50 is greater than 2500 µM.

For the compound `O=C(O)COc1c(C(=O)Nc2ccn[nH]2)sc(Br)c1Br`, the IC50 is greater than 2500 µM.

`N#CCOc1c(C(=O)O)sc(Br)c1Br`: the half-maximal inhibitory concentration (IC50) is greater than 2500 µM.

In the case of `CCc1nc(-c2sc(Br)c(Br)c2OCC(=O)O)no1`, the half-maximal inhibitory concentration (IC50) is greater than 2500 µM.

For the compound `O=C(O)COc1c(-c2nnn[nH]2)sc(Br)c1Br`, the IC50 is 430 µM and the Ki was 270 µM.

As to `O=C(O)c1sc(Br)c(Br)c1OCCO`, the IC50 was greater than 2500 µM.

As for `O=C(O)c1sc(Br)c(Br)c1OCC(O)CO` (stereo not drawn), the IC50 is greater than 2500 µM.

Consider `O=C(O)COc1csc(Br)c1Br`, for which the IC50 is greater than 2500 µM.

Consider `Cc1c(-c2ccccc2)sc(-c2nnn[nH]2)c1OCC(=O)O`, for which the inhibitory constant (Ki) stood at 170 µM.

In the case of `CC(=O)N(c1cccc(-c2sc(-c3nn[nH]n3)c(OCC(=O)O)c2Br)c1)C1CC(C)(C)CC(C)(C)C1`, the inhibition constant (Ki) worked out at 4.6 µM.

As for `CC(=O)Nc1sc(Br)c(Br)c1OCC(=O)O`, the 50% inhibitory concentration (IC50) was greater than 2500 µM.

Consider `C=CCc1sc(Br)c(Br)c1OCC(=O)O`, for which the 50% inhibitory concentration (IC50) turned out to be 165 µM.

`N#Cc1sc(Br)c(Br)c1OCC(=O)O`: the half-inhibitory concentration (IC50) is greater than 2500 µM.

For the compound `O=C1CN(c2csc(-c3ccccc3)c2Br)S(=O)(=O)N1`, the IC50 was found to be 29 µM.

For the compound `O=C(O)COc1c(C(=O)O)sc(Br)c1Br`, the IC50 is 29 µM.

As to `C=CCOc1c(C(=O)O)sc(Br)c1Br`, the IC50 was greater than 2500 µM.

Consider `O=C(O)c1sc(Br)c(Br)c1OCC(F)(F)F`, for which the IC50 was greater than 2500 µM.

Regarding `O=C(O)c1sc(Br)c(Br)c1OCc1nn[nH]n1`, the half-inhibitory concentration (IC50) was greater than 2500 µM.

Consider `O=C(O)COc1c(C(=O)Nc2nccs2)sc(Br)c1Br`, for which the IC50 is greater than 2500 µM.

Turning to `Cc1c(N2CC(=O)NS2(=O)=O)csc1-c1cccc(NC2CCCCC2)c1`, the inhibition constant (Ki) came to 12 µM.

For the compound `O=C(O)COc1c(C(=O)N2CCOCC2)sc(Br)c1Br`, the 50% inhibitory concentration (IC50) was determined as 210 µM.

Regarding `Cc1nc(-c2sc(Br)c(Br)c2OCC(=O)O)no1`, the concentration for half-maximal inhibition (IC50) is greater than 2500 µM.

For `CC(C)c1nc(-c2sc(Br)c(Br)c2OCC(=O)O)no1`, the 50% inhibitory concentration (IC50) is greater than 2500 µM.

Consider `O=C(COc1c(C(=O)O)sc(Br)c1Br)NO`, for which the 50% inhibitory concentration (IC50) is greater than 2500 µM.

On to `O=C(O)COc1c(C(=O)CO)sc(Br)c1Br`, for which the concentration for half-maximal inhibition (IC50) was 330 µM and the Ki stood at 210 µM.

For the compound `O=C(O)COc1c(-c2nnn[nH]2)sc(-c2ccccc2)c1Br`, the Ki was 20 µM.

Turning to `O=C(O)COc1c(-c2nnn[nH]2)sc(-c2cccc(NC3CCCCC3)c2)c1Br`, the Ki was determined as 18 µM.

Consider `CC1(C)CC(Nc2cccc(-c3sc(-c4nn[nH]n4)c(OCC(=O)O)c3Br)c2)CC(C)(C)C1`, for which the Ki stood at 1.6 µM.

As to `Cc1c(-c2cccc(OC3CCN(S(=O)(=O)Cc4ccccc4)CC3)c2)sc(-c2nn[nH]n2)c1OCC(=O)O`, the Ki was found to be 1.3 µM.

As for `O=C(O)COc1cc(-c2ccccc2)sc1-c1nn[nH]n1`, the Ki worked out at 120 µM.

Regarding `O=C(O)COc1c(CO)sc(Br)c1Br`, the 50% inhibitory concentration (IC50) is greater than 2500 µM.

For the origin of these results see ChEMBL document CHEMBL1139178, “Probing acid replacements of thiophene PTP1B inhibitors” (Bioorg Med Chem Lett, 2007).
